Assay results: US20260124191A1, “HISTONE DEACETYLASE INHIBITOR AND USES THEREOF” (NANJING HONGSHUN PHARMACEUTICAL TECHNOLOGY CO., LTD, priority 2023, published 2026)

How the values were obtained:
[1] = system: human small cell lung cancer cell line H446; experiment: In vitro anti-tumor activity, MTT method; format: cell-based; settings: NCI-H446, 96-hour treatment, read-out: Antiproliferative Activity (IC50 ± SD, μM) H446
Description: (§1) The inhibitory effects of the compounds against human non-small cell lung cancer cell lines A549, NCI-H1650, human small cell lung cancer cell lines H446, human prostate cancer cells DU145, PC-3, LNCAP, human colon cancer cells lines HCT116, human breast cancer cells MDA-MB-231, and MCF7 tumor cell lines were determined using the MTT method.
(§2) The method was as follows. The cells in the exponential growth phase were collected to count living cells. The concentration of the cell suspension was adjusted using the corresponding medium of each group of cells. The cell suspension was added to the 96-well culture plate at 100 μL per cell, and the plate was placed in a 5% CO2 incubator at 37° C. and incubated for 24 h. Each test compound was dissolved in DMSO to prepare a stock solution with a corresponding concentration. Then, each stock solution was diluted 500-fold with the medium to prepare 4 replicate wells. 100 μL of the corresponding 500-fold solution was added to each well per cell line, with the final DMSO concentration of 0.1%. […] The half-maximal (relative to the DMSO control group) inhibition rate was calculated using the software GraphPad Prism 4.

[2] = system: human non-small cell lung cancer cell line A549; experiment: In vitro anti-tumor activity, MTT method; format: cell-based; settings: Homo sapiens, A549, 96 h, 96-hour treatment
Description: as §1, §2

[3] = system: human breast cancer cells MCF7; experiment: In vitro anti-tumor activity, MTT method; format: cell-based; settings: Homo sapiens, MCF7, 96 h, MCF-7, MTT, 96-hour treatment
Description: as §1, §2

[4] = system: human colon cancer cell line HCT116; experiment: In vitro anti-tumor activity, MTT method; format: cell-based; settings: HCT-116, 96-hour treatment, read-out: Antiproliferative Activity (IC50 ± SD, μM) HCT116
Description: as §1, §2

[5] = system: human non-small cell lung cancer cell line NCI-H1650; experiment: In vitro anti-tumor activity, MTT method; format: cell-based; settings: 96-hour treatment, read-out: Antiproliferative Activity (IC50 ± SD, μM) H1650
Description: as §1, §2

[6] = system: human prostate cancer cells LNCAP; experiment: In vitro anti-tumor activity, MTT method; format: cell-based; settings: 96-hour treatment, read-out: Antiproliferative Activity (IC50 ± SD, μM) LNCAP
Description: as §1, §2

[7] = system: human breast cancer cells MDA-MB-231; experiment: In vitro anti-tumor activity, MTT method; format: cell-based; settings: MDA-MB-231, MTT, 96-hour treatment, read-out: Antiproliferative Activity (IC50 ± SD, μM) MDA-MB-231
Description: as §1, §2

[8] = system: human prostate cancer cells DU145; experiment: In vitro anti-tumor activity, MTT method; format: cell-based; settings: Homo sapiens, DU-145, 96 h, 96-hour treatment
Description: as §1, §2

[9] = system: human prostate cancer cells PC-3; experiment: In vitro anti-tumor activity, MTT method; format: cell-based; settings: Homo sapiens, 96 h, PC-3, MTT, 96-hour treatment
Description: as §1, §2

HT29 = experiment: In vitro anti-tumor activity, MTT method; format: cell-based; settings: Homo sapiens, HT-29, 96-hour treatment, read-out: Antiproliferative Activity (IC50 ± SD, μM) HT29
HDAC = HDAC inhibitory activity assay (FRET); format: biochemical
Description: The HDAC inhibitory activity of the synthesized compounds was determined by fluorescence resonance energy transfer (FRET), and then compared with that of the positive control to screen out compounds with better activity. HDAC was obtained by purification or purchased directly.
The method was as follows.
An enzyme was added to reaction wells, a reaction buffer was added to control wells, a sample dissolved in DMSO was added to the reaction wells, and the wells were incubated using a contactless nanoflow sonic pipetting system (Ech-550; nanoflow). A fluorescent substrate was added to each reaction well and then rotated and shaken. The wells were incubated for 1-2 h at 30° C. under a sealed condition. A TMP26-containing chromogenic agent was added to terminate the reaction and produce fluorescence. The fluorescence intensity was detected using En Vision multi-label microplate detector (Perkin Elmer) (excitation light: 490 nm, emitted light: 520 nm). After the stabilization of color development, the endpoint value was read. The percentage (relative to the DMSO control group) inhibition rate was calculated using the software GraphPad Prism 4.

IC50 [1] | IC50 [2] | IC50 [3] | IC50 [4] | IC50 [5] | IC50 [6] | IC50 [7] | IC50 [8] | IC50 [9] | IC50 (HT29) | IC50 (HDAC; HDAC, FRET, read-out: Half-maximal inhibitory concentration (IC50 ± SD)) | Structure (SMILES) | Inhibition rate (HDAC; test concentration 100 nM, relative to DMSO control)
0.57 ± 0.03 µM | 1.32 ± 0.17 µM | 1.43 ± 0.06 µM | 0.75 ± 0.08 µM | 6.12 ± 0.88 µM | 1.63 ± 0.24 µM | 0.67 ± 0.1 µM | 0.5 ± 0.07 µM | 0.82 ± 0.07 µM | 1.76 ± 0.25 µM | 0.0129 ± 0.0001 µM | O=C(CCCCCCN1C(=O)C/C(=C\c2ccccc2)C1=O)NO [Example I-4] | –
0.78 ± 0.04 µM | 1.12 ± 0.2 µM | 1.05 ± 0.24 µM | 0.81 ± 0.06 µM | 7.3 ± 0.56 µM | 1.95 ± 0.21 µM | 2.05 ± 0.2 µM | 0.38 ± 0.04 µM | 1.7 ± 0.08 µM | 1.3 ± 0.1 µM | – | O=C(CCCCCCN1C(=O)C/C(=C\c2cccc(Cl)c2)C1=O)NO [Example I-25, (E)-7-(3-(3-chlorobenzal)-2,5-diketopyrrolidinyl)-N-hydroxyheptamide] | 91.2% ± 0.7%
